Test results reported in US20240246913A1, “2-CARBOXYL-INDOLE INHIBITORS OF METALLO-BETA-LACTAMASES” (Oxford University Innovation Limited, priority 2021, published 2024).

Experiments:
[1] = Plasma protein binding, equilibrium dialysis, mouse plasma; assay type: in vitro ADME; conditions: pH 7.4, equilibrium dialysis (RED) 4 hours at 37° C., read-out: Plasma protein binding, fu, Mouse
Experimental: (§1) The fraction of unbound compound (fu) in plasma from human or other animal species was determined by equilibrium dialysis at 37° C. for 4 hours using the Rapid Equilibrium Dialysis (RED) device (ThermoFisher Scientific). The test compound at a concentration of 10 μM was added to plasma and dialyzed against isotonic phosphate buffer (67 mM, pH 7.4) over 4 hours at 37° C. After dialysis, compound concentrations in buffer and plasma were quantified by LC-MS/MS. In parallel the stability of the compound in plasma was determined by incubating drug-spiked plasma (10 μM) at 37° C. for 4 hours, meanwhile the control plasma sample was kept in the freezer. The concentration of the compound in both samples was quantified by LC-MS/MS (Waters Corp, Milford, MA, USA).

[2] = Plasma protein binding, equilibrium dialysis, human plasma; assay type: in vitro ADME; conditions: pH 7.4, equilibrium dialysis (RED) 4 hours at 37° C., read-out: Plasma protein binding, fu, Human
Experimental: as §1

VIM-2 = VIM-2 (Escherichia coli, UniProt Q5U7L7); test: MBL inhibition, FC-5 fluorescence assay, VIM-2; assay type: biochemical; conditions: FC-5 cephalosporin substrate, ranges of obtained pIC50, read-out: pIC50 VIM-2 (converted)
Method in brief: (§2)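 FC-5 turnover; fluorescence ex 380 nm/em 460 nm; initial rates; normalized dose-response, variable-slope fit; 4 replicates per concentration point.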

IMP-1 = IMP-1 (Serratia marcescens, UniProt P52699); test: MBL inhibition, FC-5 fluorescence assay, IMP-1; assay type: biochemical; conditions: FC-5 cephalosporin substrate, fluorescence; ranges of obtained pIC50; read-out: pIC50 IMP-1 (converted)
Method in brief: as §2

VIM-1 = VIM-1 (Pseudomonas aeruginosa, UniProt A0A0F7KYQ8); test: MBL inhibition, FC-5 fluorescence assay, VIM-1; assay type: biochemical; conditions: FC-5 cephalosporin substrate, ranges of obtained pIC50, read-out: pIC50 VIM-1 (converted)
Method in brief: as §2

NDM-1 = NDM-1 (Klebsiella pneumoniae, UniProt C7C422); test: MBL inhibition, FC-5 fluorescence assay, NDM-1; assay type: biochemical; conditions: FC-5 cephalosporin substrate, fluorescence; ranges of obtained pIC50; read-out: pIC50 NDM-1 (converted)
Method in brief: as §2

[3] = tested on: Acinetobacter baumannii NDM-1; test: Antibiotic susceptibility testing (MIC), AB NDM-1; assay type: cell-based; conditions: agar or broth dilution (CLSI/EUCAST)
Experimental: (§3) Antibiotic susceptibility testing was performed using the agar or broth dilution method, in line with the Clinical and Laboratory Standards Institute (CLSI) and European Committee on Antimicrobial Susceptibility Testing (EUCAST) requirements.

Escherichia coli NDM-7 = test: Antibiotic susceptibility testing (MIC), EC NDM-7; assay type: cell-based; conditions: agar or broth dilution (CLSI/EUCAST)
Experimental: as §3

Escherichia coli NDM-1 = test: Antibiotic susceptibility testing (MIC), EC NDM-1; assay type: cell-based; conditions: agar or broth dilution (CLSI/EUCAST)
Experimental: as §3

Sequence of IMP-1 (P52699 19-246, looked up, species assumed): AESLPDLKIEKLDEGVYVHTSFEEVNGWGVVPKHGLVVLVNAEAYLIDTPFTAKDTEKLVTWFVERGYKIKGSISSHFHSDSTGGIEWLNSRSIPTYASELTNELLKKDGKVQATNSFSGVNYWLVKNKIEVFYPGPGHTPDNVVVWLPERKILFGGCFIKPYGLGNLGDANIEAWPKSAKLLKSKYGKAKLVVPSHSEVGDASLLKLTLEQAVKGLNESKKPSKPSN
Sequence of NDM-1 (C7C422 29-270, looked up, species assumed): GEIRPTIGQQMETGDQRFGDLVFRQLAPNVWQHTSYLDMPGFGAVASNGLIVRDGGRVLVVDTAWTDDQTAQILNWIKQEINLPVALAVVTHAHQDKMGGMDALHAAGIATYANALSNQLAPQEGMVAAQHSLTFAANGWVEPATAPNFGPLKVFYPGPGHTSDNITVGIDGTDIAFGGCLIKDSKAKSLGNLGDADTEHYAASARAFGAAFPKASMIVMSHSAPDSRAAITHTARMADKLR

SMILES | fraction unbound at 4 h, 10 μM [1] | fraction unbound at 4 h, 10 μM [2] | IC50 (VIM-2) [nM] | IC50 (IMP-1) [nM] | IC50 (VIM-1) [nM] | IC50 (NDM-1) [nM] | MIC values AB NDM-1 [3] | MIC values EC NDM-7 (Escherichia coli NDM-7) | MIC values EC NDM-1 (Escherichia coli NDM-1)
CC(NS(C)(=O)=O)c1cccc2c(-c3cc(Cl)cc(Cl)c3)c(C(=O)O)[nH]c12 (centres unmarked) [IC-2, 3-(3,5-Dichlorophenyl)-7-(1-(methylsulfonamido)ethyl)-1H-indole-2-carboxylic acid] | < 0.005 | < 0.005 | > 10 | > 10 | > 10 | > 10 | – | – | –
CC(c1cccc2c(-c3ccc(CS(C)(=O)=O)c(F)c3)c(C(=O)O)[nH]c12)N1C(=O)CN(CCCN)C1=O (centres unmarked) [IC-13, 7-[1-[3-(3-Aminopropyl)-2,5-dioxo-imidazolidin-1-yl]ethyl]-3-[3-fluoro-4-(methylsulfonylmethyl)phenyl]-1H-indole-2-carboxylic acid] | 0.005 to 0.05 | 0.05 to 0.25 | > 10 | > 10 | 1 to 10 | < 0.1 | – | – | –
C[C@@H](c1cccc2c(-c3ccc(=O)[nH]c3)c(C(=O)O)[nH]c12)N1C[C@]2(C[C@@H](CN)C2)OC1=O [IC-15, 7-((S)-1-((2S,4r)-2-(aminomethyl)-6-oxo-5-oxa-7-azaspiro[3.4]octan-7-yl)ethyl)-3-(6-oxo-1,6-dihydropyridin-3-yl)-1H-indole-2-carboxylic acid] | 0.005 to 0.05 | 0.05 to 0.25 | – | – | – | – | C (C = MIC values > 8) | A (A = MIC values ≤ 1) | B (B MIC values 2 ÷ 8)
C[C@@H](c1cccc2c(-c3ccc(CS(C)(=N)=O)c(F)c3)c(C(=O)O)[nH]c12)N1C[C@]2(C[C@@H](CN)C2)OC1=O (stereo partly drawn) [IC-19, 7-((1S)-1-(2-(aminomethyl)-6-oxo-5-oxa-7-azaspiro[3.4]octan-7-yl)ethyl)-3-(3-fluoro-4-((S-methylsulfonimidoyl)methyl)phenyl)-1H-indole-2-carboxylic acid] | 0.05 to 0.25 | > 0.25 | 0.1 to 1 | > 10 | 0.1 to 1 | < 0.1 | B (B MIC values 2 ÷ 8) | A (A = MIC values ≤ 1) | B (B MIC values 2 ÷ 8)
C[C@@H](c1cccc2c(-c3c(F)cc(NS(C)(=O)=O)cc3F)c(C(=O)O)[nH]c12)N1C[C@]2(C[C@@H](CN)C2)OC1=O [IC-21, 7-((S)-1-((2S,4r)-2-(aminomethyl)-6-oxo-5-oxa-7-azaspiro[3.4]octan-7-yl)ethyl)-3-(2,6-difluoro-4-(methylsulfonamido)phenyl)-1H-indole-2-carboxylic acid] | 0.005 to 0.05 | 0.05 to 0.25 | 1 to 10 | > 10 | > 10 | 1 to 10 | C (C = MIC values > 8) | B (B MIC values 2 ÷ 8) | C (C = MIC values > 8)
C[C@@H](c1cccc2c(-c3ccc4c(c3)CNC4=O)c(C(=O)O)[nH]c12)N1C[C@]2(C[C@@H](CN)C2)OC1=O [IC-22, 7-((S)-1-((2R,4s)-2-(aminomethyl)-6-oxo-5-oxa-7-azaspiro[3.4]octan-7-yl)ethyl)-3-(1-oxoisoindolin-5-yl)-1H-indole-2-carboxylic acid] | 0.005 to 0.05 | 0.05 to 0.25 | < 0.1 | > 10 | 1 to 10 | 0.1 to 1 | B (B MIC values 2 ÷ 8) | A (A = MIC values ≤ 1) | A (A = MIC values ≤ 1)
C[C@@H](c1cccc2c(-c3ccc(NS(=O)(=O)C4COC4)c(F)c3)c(C(=O)O)[nH]c12)N1C[C@]2(C[C@@H](CN)C2)OC1=O [IC-24, 7-((S)-1-((2S,4r)-2-(aminomethyl)-6-oxo-5-oxa-7-azaspiro[3.4]octan-7-yl)ethyl)-3-(3-fluoro-4-(oxetane-3-sulfonamido)phenyl)-1H-indole-2-carboxylic acid] | 0.05 to 0.25 | 0.05 to 0.25 | 0.1 to 1 | > 10 | 1 to 10 | < 0.1 | B (B MIC values 2 ÷ 8) | A (A = MIC values ≤ 1) | A (A = MIC values ≤ 1)
C[C@@H](c1cccc2c(-c3ccnc(N)c3)c(C(=O)O)[nH]c12)N1C[C@]2(C[C@@H](CN)C2)OC1=O [IC-34, 3-(2-Aminopyridin-4-yl)-7-[(1S)-1-[(2r,4r)-2-(aminomethyl)-6-oxo-5-oxa-7-azaspiro[3.4]octan-7-yl]ethyl]-1H-indole-2-carboxylic acid] | – | > 0.25 | 1 to 10 | > 10 | 1 to 10 | > 10 | C (C = MIC values > 8) | A (A = MIC values ≤ 1) | B (B MIC values 2 ÷ 8)
CNc1cc(-c2c(C(=O)O)[nH]c3c([C@H](C)N4C[C@]5(C[C@@H](CN)C5)OC4=O)cccc23)ccn1 [IC-35, 3-[2-(methylamino)pyridin-4-yl]-7-[(1S)-1-[(2r,4r)-2-(aminomethyl)-6-oxo-5-oxa-7-azaspiro[3.4]octan-7-yl]ethyl]-1H-indole-2-carboxylic acid] | – | > 0.25 | 0.1 to 1 | > 10 | 1 to 10 | > 10 | C (C = MIC values > 8) | A (A = MIC values ≤ 1) | A (A = MIC values ≤ 1)
CNc1ccc(-c2c(C(=O)O)[nH]c3c([C@H](C)N4C[C@]5(C[C@@H](CN)C5)OC4=O)cccc23)cn1 [IC-36, 3-[6-(methylamino)pyridin-3-yl]-7-[(1S)-1-[(2r,4r)-2-(aminomethyl)-6-oxo-5-oxa-7-azaspiro[3.4]octan-7-yl]ethyl]-1H-indole-2-carboxylic acid] | – | 0.05 to 0.25 | > 10 | > 10 | > 10 | > 10 | B (B MIC values 2 ÷ 8) | A (A = MIC values ≤ 1) | A (A = MIC values ≤ 1)
C[C@@H](c1cccc2c(-c3ccc(N)nc3)c(C(=O)O)[nH]c12)N1C[C@]2(C[C@@H](CN)C2)OC1=O [IC-37, 3-(6-aminopyridin-3-yl)-7-[(1S)-1-[(2r,4r)-2-(aminomethyl)-6-oxo-5-oxa-7-azaspiro[3.4]octan-7-yl]ethyl]-1H-indole-2-carboxylic acid] | – | 0.05 to 0.25 | 1 to 10 | > 10 | > 10 | 1 to 10 | B (B MIC values 2 ÷ 8) | A (A = MIC values ≤ 1) | A (A = MIC values ≤ 1)
C[C@@H](c1cccc2c(-c3ccncc3)c(C(=O)O)[nH]c12)N1C[C@]2(C[C@@H](CN)C2)OC1=O [IC-38, 3-(pyridin-4-yl)-7-[(1S)-1-[(2r,4r)-2-(aminomethyl)-6-oxo-5-oxa-7-azaspiro[3.4]octan-7-yl]ethyl]-1H-indole-2-carboxylic acid] | – | 0.005 to 0.05 | 0.1 to 1 | > 10 | 1 to 10 | 0.1 to 1 | B (B MIC values 2 ÷ 8) | A (A = MIC values ≤ 1) | A (A = MIC values ≤ 1)
C[C@@H](c1cccc2c(-c3cccnc3)c(C(=O)O)[nH]c12)N1C[C@]2(C[C@@H](CN)C2)OC1=O [IC-39, 3-(pyridin-3-yl)-7-[(1S)-1-[(2r,4r)-2-(aminomethyl)-6-oxo-5-oxa-7-azaspiro[3.4]octan-7-yl]ethyl]-1H-indole-2-carboxylic acid] | – | 0.005 to 0.05 | 1 to 10 | > 10 | 0.1 to 1 | 0.1 to 1 | B (B MIC values 2 ÷ 8) | A (A = MIC values ≤ 1) | A (A = MIC values ≤ 1)
CC(OCC1CC[N+](C)(C)CC1)c1cccc2c(-c3ccc(CS(C)(=O)=O)c(F)c3)c(C(=O)[O-])[nH]c12 (centres unmarked) [IC-90, 7-(1-((1,1-Dimethylpiperidin-1-ium-4-yl)methoxy)ethyl)-3-(3-fluoro-4-((methylsulfonyl)methyl)phenyl)-1H-indole-2-carboxylate] | 0.05 to 0.25 | > 0.25 | 1 to 10 | > 10 | 1 to 10 | 1 to 10 | – | – | –
